Laboratory results as given in patent US20100273189A1, “NON SEPARATION ASSAYS WITH SELECTIVE SIGNAL INHIBITORS” (BECKMAN COULTER, INC., priority 2009, published 2010).

Experiments:
Assay type in all cases: biochemical
CK-MB = assay: Effect of trigger pH: CK-MB on LodeStars with ascorbate
Experimental: (§1) B. In order to determine the effect of trigger solution pH on a variety of test assay systems, a series of experiments were conducted varying trigger pH. […] In the tables, two pH values are listed for each data set. The first is the pH of the buffer sample added to the reaction mixture. The second is the resulting pH of the final reaction mix.

TnI = assay: Effect of trigger pH: TnI on LodeStars with ascorbate
Experimental: as §1

cTnI = assay: Comparison of particle types in cTnI assay, with and without ascorbic acid; settings: 150 μM ascorbic acid; each particle system; highest calibrator level; in words
Experimental: Signal generation with Silica and PMMA particles. A comparison of Dynal M-280, 3 um CML, 6 um CML, PMMA, silica and LodeStars particles was conducted using the cTnI assay described above. The preparation of each particle, bearing a coating of streptavidin, is described in the foregoing examples. Ascorbic acid, when present, was at 150 μM.

[1] = Control (7.0), S1, CK-MB 3200 ng/ml
[2] = Control (7.0), S2, CK-MB 9150 ng/ml
[3] = Control (7.0), S3, CK-MB 26300 ng/ml
[4] = Control (7.0), S4, CK-MB 94600 ng/ml
[5] = Control (7.0), S5, CK-MB 268750 ng/ml
[6] = pH 6.0 (5.9), S1, CK-MB 3200 ng/ml
[7] = pH 6.0 (5.9), S2, CK-MB 9150 ng/ml
[8] = pH 6.0 (5.9), S3, CK-MB 26300 ng/ml
[9] = pH 6.0 (5.9), S4, CK-MB 94600 ng/ml
[10] = pH 6.0 (5.9), S5, CK-MB 268750 ng/ml
[11] = pH 7.0 (6.8), S1, CK-MB 3200 ng/ml
[12] = pH 7.0 (6.8), S2, CK-MB 9150 ng/ml
[13] = pH 7.0 (6.8), S3, CK-MB 26300 ng/ml
[14] = pH 7.0 (6.8), S4, CK-MB 94600 ng/ml
[15] = pH 7.0 (6.8), S5, CK-MB 268750 ng/ml
[16] = pH 8.0 (7.8), S1, CK-MB 3200 ng/ml
[17] = pH 8.0 (7.8), S2, CK-MB 9150 ng/ml
[18] = pH 8.0 (7.8), S3, CK-MB 26300 ng/ml
[19] = pH 8.0 (7.8), S4, CK-MB 94600 ng/ml
[20] = pH 8.0 (7.8), S5, CK-MB 268750 ng/ml
[21] = pH 9.0 (8.6), S1, CK-MB 3200 ng/ml
[22] = pH 9.0 (8.6), S2, CK-MB 9150 ng/ml
[23] = pH 9.0 (8.6), S3, CK-MB 26300 ng/ml
[24] = pH 9.0 (8.6), S4, CK-MB 94600 ng/ml
[25] = pH 9.0 (8.6), S5, CK-MB 268750 ng/ml
[26] = Control (7.5), S1, TnI 172 ng/ml
[27] = Control (7.5), S2, TnI 366 ng/ml
[28] = Control (7.5), S3, TnI 1368 ng/ml
[29] = Control (7.5), S4, TnI 11136 ng/ml
[30] = Control (7.5), S5, TnI 27922 ng/ml
[31] = Control (7.5), S6, TnI 10600 ng/ml
[32] = pH 6.0 (5.9), S1, TnI 172 ng/ml
[33] = pH 6.0 (5.9), S2, TnI 366 ng/ml
[34] = pH 6.0 (5.9), S3, TnI 1368 ng/ml
[35] = pH 6.0 (5.9), S4, TnI 11136 ng/ml
[36] = pH 6.0 (5.9), S5, TnI 27922 ng/ml
[37] = pH 6.0 (5.9), S6, TnI 10600 ng/ml
[38] = pH 7.0 (7.1), S1, TnI 172 ng/ml
[39] = pH 7.0 (7.1), S2, TnI 366 ng/ml
[40] = pH 7.0 (7.1), S3, TnI 1368 ng/ml
[41] = pH 7.0 (7.1), S4, TnI 11136 ng/ml
[42] = pH 7.0 (7.1), S5, TnI 27922 ng/ml
[43] = pH 7.0 (7.1), S6, TnI 10600 ng/ml
[44] = pH 8.0 (7.9), S1, TnI 172 ng/ml
[45] = pH 8.0 (7.9), S2, TnI 366 ng/ml
[46] = pH 8.0 (7.9), S3, TnI 1368 ng/ml
[47] = pH 8.0 (7.9), S4, TnI 11136 ng/ml
[48] = pH 8.0 (7.9), S5, TnI 27922 ng/ml
[49] = pH 8.0 (7.9), S6, TnI 10600 ng/ml
[50] = pH 9.0 (8.7), S1, TnI 172 ng/ml
[51] = pH 9.0 (8.7), S2, TnI 366 ng/ml
[52] = pH 9.0 (8.7), S3, TnI 1368 ng/ml
[53] = pH 9.0 (8.7), S4, TnI 11136 ng/ml
[54] = pH 9.0 (8.7), S5, TnI 27922 ng/ml
[55] = pH 9.0 (8.7), S6, TnI 10600 ng/ml

For `O=C1O[C@H]([C@@H](O)CO)C(O)=C1O` [Ascorbic Acid, Ascorbic acid], the “Mean RLU” value (CK-MB; Control (7.0), S0, CK-MB 600 ng/ml) was 1,837 RLU, the “Mean RLU” value (CK-MB; [1]) was 7,380 RLU and the S/S0 (CK-MB; [1]) was 4.0. The “Mean RLU” value (CK-MB; [2]) was 22,931 RLU, the S/S0 (CK-MB; [2]) was 12.5 and the “Mean RLU” value (CK-MB; [3]) was 75,857 RLU. The S/S0 (CK-MB; [3]) was 41.3, the “Mean RLU” value (CK-MB; [4]) was 427,483 RLU and the S/S0 (CK-MB; [4]) was 232.7. For the same compound, the “Mean RLU” value (CK-MB; [5]) was 2,055,748 RLU, the S/S0 (CK-MB; [5]) was 1118.9 and the “Mean RLU” value (CK-MB; pH 6.0 (5.9), S0, CK-MB 600 ng/ml) was 693 RLU. For the same compound, the “Mean RLU” value (CK-MB; [6]) was 2,849 RLU, the S/S0 (CK-MB; [6]) was 4.1 and the “Mean RLU” value (CK-MB; [7]) was 6,812 RLU. The S/S0 (CK-MB; [7]) was 9.8, the “Mean RLU” value (CK-MB; [8]) was 28,129 RLU and the S/S0 (CK-MB; [8]) was 40.6. The “Mean RLU” value (CK-MB; [9]) was 119,144 RLU, the S/S0 (CK-MB; [9]) was 171.8 and the “Mean RLU” value (CK-MB; [10]) was 754,177 RLU. For the same compound, the S/S0 (CK-MB; [10]) was 1087.8, the “Mean RLU” value (CK-MB; pH 7.0 (6.8), S0, CK-MB 600 ng/ml) was 1,788 RLU and the “Mean RLU” value (CK-MB; [11]) was 8,409 RLU. For the same compound, the S/S0 (CK-MB; [11]) was 4.7, the “Mean RLU” value (CK-MB; [12]) was 22,669 RLU and the S/S0 (CK-MB; [12]) was 12.7. The “Mean RLU” value (CK-MB; [13]) was 84,704 RLU, the S/S0 (CK-MB; [13]) was 47.4 and the “Mean RLU” value (CK-MB; [14]) was 370,193 RLU. For the same compound, the S/S0 (CK-MB; [14]) was 207.0, the “Mean RLU” value (CK-MB; [15]) was 2,084,173 RLU and the S/S0 (CK-MB; [15]) was 1165.6. The “Mean RLU” value (CK-MB; pH 8.0 (7.8), S0, CK-MB 600 ng/ml) was 3,263 RLU, the “Mean RLU” value (CK-MB; [16]) was 15,725 RLU and the S/S0 (CK-MB; [16]) was 4.8. The “Mean RLU” value (CK-MB; [17]) was 42,805 RLU, the S/S0 (CK-MB; [17]) was 13.1 and the “Mean RLU” value (CK-MB; [18]) was 150,140 RLU. The S/S0 (CK-MB; [18]) was 46.0, the “Mean RLU” value (CK-MB; [19]) was 788,451 RLU and the S/S0 (CK-MB; [19]) was 241.7. The “Mean RLU” value (CK-MB; [20]) was 4,618,668 RLU, the S/S0 (CK-MB; [20]) was 1415.6 and the “Mean RLU” value (CK-MB; pH 9.0 (8.6), S0, CK-MB 600 ng/ml) was 1,512 RLU. For the same compound, the “Mean RLU” value (CK-MB; [21]) was 9,508 RLU, the S/S0 (CK-MB; [21]) was 6.3 and the “Mean RLU” value (CK-MB; [22]) was 28,387 RLU. For the same compound, the S/S0 (CK-MB; [22]) was 18.8, the “Mean RLU” value (CK-MB; [23]) was 74,359 RLU and the S/S0 (CK-MB; [23]) was 49.2. For the same compound, the “Mean RLU” value (CK-MB; [24]) was 561,103 RLU, the S/S0 (CK-MB; [24]) was 371.1 and the “Mean RLU” value (CK-MB; [25]) was 3,286,012 RLU. For the same compound, the S/S0 (CK-MB; [25]) was 2173.3, the “Ave RLUs” value (TnI; Control (7.5), S0, TnI 0 ng/ml) was 543 RLU and the “Ave RLUs” value (TnI; [26]) was 1,013 RLU. The S/S0 (TnI; [26]) was 1.9, the “Ave RLUs” value (TnI; [27]) was 1,815 RLU and the S/S0 (TnI; [27]) was 3.3. The “Ave RLUs” value (TnI; [28]) was 5,981 RLU, the S/S0 (TnI; [28]) was 11.0 and the “Ave RLUs” value (TnI; [29]) was 53,524 RLU. The S/S0 (TnI; [29]) was 98.6, the “Ave RLUs” value (TnI; [30]) was 155,889 RLU and the S/S0 (TnI; [30]) was 287.3. For the same compound, the “Ave RLUs” value (TnI; [31]) was 1,235,103 RLU, the S/S0 (TnI; [31]) was 2276.0 and the “Ave RLUs” value (TnI; pH 6.0 (5.9), S0, TnI 0 ng/ml) was 273 RLU. The “Ave RLUs” value (TnI; [32]) was 379 RLU, the S/S0 (TnI; [32]) was 1.4 and the “Ave RLUs” value (TnI; [33]) was 600 RLU. The S/S0 (TnI; [33]) was 2.2, the “Ave RLUs” value (TnI; [34]) was 1,452 RLU and the S/S0 (TnI; [34]) was 5.3. For the same compound, the “Ave RLUs” value (TnI; [35]) was 11,579 RLU, the S/S0 (TnI; [35]) was 42.4 and the “Ave RLUs” value (TnI; [36]) was 32,519 RLU. The S/S0 (TnI; [36]) was 119.0, the “Ave RLUs” value (TnI; [37]) was 216,379 RLU and the S/S0 (TnI; [37]) was 791.6. The “Ave RLUs” value (TnI; pH 7.0 (7.1), S0, TnI 0 ng/ml) was 519 RLU, the “Ave RLUs” value (TnI; [38]) was 1,031 RLU and the S/S0 (TnI; [38]) was 2.0. For the same compound, the “Ave RLUs” value (TnI; [39]) was 1,703 RLU, the S/S0 (TnI; [39]) was 3.3 and the “Ave RLUs” value (TnI; [40]) was 5,695 RLU. The S/S0 (TnI; [40]) was 11.0, the “Ave RLUs” value (TnI; [41]) was 57,599 RLU and the S/S0 (TnI; [41]) was 111.1. The “Ave RLUs” value (TnI; [42]) was 145,140 RLU, the S/S0 (TnI; [42]) was 279.8 and the “Ave RLUs” value (TnI; [43]) was 938,075 RLU. For the same compound, the S/S0 (TnI; [43]) was 1808.6, the “Ave RLUs” value (TnI; pH 8.0 (7.9), S0, TnI 0 ng/ml) was 699 RLU and the “Ave RLUs” value (TnI; [44]) was 1,319 RLU. The S/S0 (TnI; [44]) was 1.9, the “Ave RLUs” value (TnI; [45]) was 2,359 RLU and the S/S0 (TnI; [45]) was 3.4. The “Ave RLUs” value (TnI; [46]) was 8,048 RLU, the S/S0 (TnI; [46]) was 11.5 and the “Ave RLUs” value (TnI; [47]) was 72,016 RLU. The S/S0 (TnI; [47]) was 103.1, the “Ave RLUs” value (TnI; [48]) was 225,113 RLU and the S/S0 (TnI; [48]) was 322.2. The “Ave RLUs” value (TnI; [49]) was 1,574,655 RLU, the S/S0 (TnI; [49]) was 2253.8 and the “Ave RLUs” value (TnI; pH 9.0 (8.7), S0, TnI 0 ng/ml) was 413 RLU. The “Ave RLUs” value (TnI; [50]) was 716 RLU, the S/S0 (TnI; [50]) was 1.7 and the “Ave RLUs” value (TnI; [51]) was 1,097 RLU. For the same compound, the S/S0 (TnI; [51]) was 2.7, the “Ave RLUs” value (TnI; [52]) was 3,999 RLU and the S/S0 (TnI; [52]) was 9.7. The “Ave RLUs” value (TnI; [53]) was 36,424 RLU, the S/S0 (TnI; [53]) was 88.1 and the “Ave RLUs” value (TnI; [54]) was 107,020 RLU. The S/S0 (TnI; [54]) was 258.9, the “Ave RLUs” value (TnI; [55]) was 855,956 RLU and the S/S0 (TnI; [55]) was 2070.9. For the same compound, the S/S0 (cTnI) was “markedly improved S/S0”.
